Measured values published in patent US4876260A, “Oxathiolanes” (State of Israel, Israel Institute of Biological Research, priority 1988, dated 1989).
Several values for one entry are separate records, joined by “and”; a condition that tells them apart may be missing. Identical values can stand only once. Entries after “also recorded” stand apart in the source; their conditions may differ. Like-named read-outs stand apart in the source and are kept apart here.

How the values were obtained:
[1] = target: T1, M1 muscarinic receptors (3H-PZ sites, forebrain) (Rattus norvegicus, UniProt P08482); test: Displacement of 3H-Pirenzepine (3H-PZ, selective M1 antagonist) from rat forebrain homogenate; assay type: binding
T1 sequence (P08482 1-460): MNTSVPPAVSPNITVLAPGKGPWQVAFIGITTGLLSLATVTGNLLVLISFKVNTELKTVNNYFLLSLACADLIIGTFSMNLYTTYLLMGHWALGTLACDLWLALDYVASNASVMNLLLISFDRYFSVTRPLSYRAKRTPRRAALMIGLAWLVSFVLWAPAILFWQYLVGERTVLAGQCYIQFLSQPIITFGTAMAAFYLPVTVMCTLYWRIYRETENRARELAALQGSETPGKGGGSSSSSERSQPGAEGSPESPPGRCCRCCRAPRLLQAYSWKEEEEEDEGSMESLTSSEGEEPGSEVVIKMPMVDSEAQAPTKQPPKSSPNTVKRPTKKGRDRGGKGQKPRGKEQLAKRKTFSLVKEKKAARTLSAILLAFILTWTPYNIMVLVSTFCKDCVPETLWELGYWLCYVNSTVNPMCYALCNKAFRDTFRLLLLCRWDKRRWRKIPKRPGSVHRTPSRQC

[2] = target: muscarinic receptors (3H-QNB sites, M1 and M2, forebrain); assay type: binding, rat; settings: (b) forebrain
[3] = target: muscarinic receptors (3H-CD sites, M1 and M2, forebrain); test: Displacement of 3H-cis-dioxolane (3H-CD, non-selective M1 and M2 agonist) from rat forebrain homogenate; assay type: binding
[4] = target: T2, M1 muscarinic receptors (3H-PZ sites, frontal cortex) (Rattus norvegicus, UniProt P08482); test: Displacement of 3H-PZ from rat frontal cortex homogenate; assay type: binding; settings: for a':c', Ki(3H-PZ):Ki(3H-CD): (g) frontal cortex ratio
T2 sequence (P08482 1-460): T1 sequence (P08482 1-460)

[5] = target: muscarinic receptors (3H-QNB sites, frontal cortex); assay type: binding, rat; settings: (b') frontal cortex
[6] = target: muscarinic receptors (3H-CD sites, frontal cortex); test: Displacement of 3H-CD from rat frontal cortex homogenate; assay type: binding; settings: (c') frontal cortex
[7] = target: T3, muscarinic receptors (3H-QNB sites, cerebellum, mainly M2) (Rattus norvegicus, UniProt P10980); test: biochemical; assay type: binding; settings: Ki(3H-QNB), (b") cerebellum
T3 sequence (P10980 1-466): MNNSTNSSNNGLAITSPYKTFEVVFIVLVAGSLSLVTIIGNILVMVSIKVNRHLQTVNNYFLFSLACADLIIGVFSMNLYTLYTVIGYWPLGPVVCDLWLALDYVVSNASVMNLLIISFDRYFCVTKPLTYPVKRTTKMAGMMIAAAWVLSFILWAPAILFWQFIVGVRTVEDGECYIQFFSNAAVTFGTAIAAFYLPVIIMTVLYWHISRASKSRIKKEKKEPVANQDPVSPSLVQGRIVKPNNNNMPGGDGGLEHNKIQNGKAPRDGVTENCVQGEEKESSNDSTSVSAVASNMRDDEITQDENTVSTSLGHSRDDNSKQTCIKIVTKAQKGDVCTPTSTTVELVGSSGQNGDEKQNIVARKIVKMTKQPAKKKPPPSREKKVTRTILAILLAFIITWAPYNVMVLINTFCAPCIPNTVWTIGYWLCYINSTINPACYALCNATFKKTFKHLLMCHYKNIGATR

[8] = test system: muscarinic receptors (3H-QNB sites, cerebellum, mainly M2); test: biochemical; assay type: binding, rat; settings: for b':b": (k) Ki(3H-QNB) frontal cortex : Ki(3H-QNB) cerebellum
[9] = test system: all muscarinic receptors; settings: cited from earlier work
[10] = test system: isolated guinea-pig ileum; test: Contraction of isolated guinea-pig ileum preparation; settings: listed as AF122A
Excerpt: (§1) From this Table, it appears that compounds (III) were not so effective in contracting the guinea pig ileum preparation.

[11] = test system: ACh-induced contractions of guinea-pig ileum; test: Blocking of ACh-induced contractions of isolated guinea-pig ileum; settings: listed as AF122A
Excerpt: as §1

[12] = test system: mice; test: Pharmacodynamic profile and general toxicity in mice; assay type: in vivo, CD-1 mice
Experimental: Male white mice of the CD-1 strain supplied by Charles River Ltd. (U.K.) were used throughout. An acclimatization period of at least three days was allowed between arrival and commencement of a particular experimental series. The animals were fed a complete commercial pelleted rodent diet without restriction during the acclimatization and study periods. Animals had free access to tap water. Body weights during testing were mostly within 20-28 g.
Test materials were prepared as aqueous solutions in physiological saline (0.9% NaCl), up to a maximum concentration of 10 mg./ml. All materials were freshly prepared on the morning prior to each dosing session. Dosages were expressed gravimetrically (mg./kg.), in terms of the materials as received.
Groups of mice (mostly n=5) received either i.v. or oral administration of the test materials at various dose levels. Dose volumes appropriate for respective dose levels selected, were determined for each animal according to body weights on the day of dosing. Any behavioral changes occurring during one to two hours after administration, as well as incidence of death up to 24 hours after dosing were recorded.

[13] = 25 mg/kg i.v., listed as (±)-III AF122A
[14] = 100 mg/kg p.o., listed as (±)-III AF122A
[15] = 200 mg/kg p.o., listed as (±)-III AF122A

In the case of O=C1CCCN1CC#CCN1CCCC1 [compound 1, Oxotremorine], the “order of the ratios Ki(3H-PZ):Ki(3H-CD)” value [1] is reported as “oxotremorine >McN-A-343>compound # 3; also recorded: weakest relative affinity towards M1 binding sites”, the “a:b, Ki(3H-PZ):Ki(3H-QNB)” value ([1]; (d) forebrain ratio) is reported as 0.29 and the “order of the ratios Ki(3H-PZ):Ki(3H-QNB)” value ([1]; forebrain, among oxotremorine, McN-A-343, compound #3) is reported as “McN-A-343 >compound #3>oxotremorine; also recorded: relatively stronger than McN-A-343 and compound #3”. For the same compound, the Ki [2] was 2100 ± 300 nM, the Ki ([3]; (c) forebrain, * in M × 10^-10) was 0.96 ± 0.42 nM and the “a':b', Ki(3H-PZ):Ki(3H-QNB)” value ([4]; (f) frontal cortex ratio) was 0.1. The “a':c', Ki(3H-PZ):Ki(3H-CD)” value [4] was 137.5, the Ki ([4]; Ki(3H-PZ)) was 220 ± 70 nM and the Ki [5] was 2200 ± 300 nM. For the same compound, the Ki [6] was 1.6 ± 0.4 nM, the Ki [7] was 700 nM and 1310 nM and the “a:b"” value ([8]; (h) Ki(3H-PZ) forebrain : Ki(3H-QNB) cerebellum) was 0.86. The “b:b"” value ([8]; (j) Ki(3H-QNB) forebrain : Ki(3H-QNB) cerebellum) was 3.00, the “b':b"” value [8] was 1.69 and the “order of M1 versus M2 selectivity, IC50 (FB):IC50 (CER) or IC50 (frontal cortex):IC50 (CER)” value ([8]; FB=forebrain, CER=cerebellum) was “compound #4>compound #3>oxotremorine”. The “affinity towards all muscarinic receptors (in words)” value [9] was “greater than those of the weaker agonists McN-A-343 or compound #3”.

For CC1OCC2(CN3CCC2CC3)S1 (stereo not shown) [compound 11, 2-methylspiro(1,3-oxathiolan-4,3')quinuclidine], the “M1 selectivity (in words)” value ([1]; from Tables 2A, 2B, 2C) was “high M1 selectivity”, the Ki ([3]; Table 2B column (c'), footnote *forebrain) was 750 nM and the “a':b', Ki(3H-PZ):Ki(3H-QNB)” value [4] was 0.09. The Ki ([4]; (a') frontal cortex, read-out: Ki(3H-PZ)) was 840 ± 30 nM, the “a':c', Ki(3H-PZ):Ki(3H-CD)” value [4] was 1.0 and the Ki [5] was 9700 ± 2300 nM. The Ki [7] was 19800 ± 6100 nM, the “b':b"” value [8] was 0.49 and the “Contraction of guinea pig ileum (in words)” value [10] was “did not produce any significant contractions in the concentration range within which it binds to the brain receptors”. The “Effect on ACh-induced contractions (in words)” value [11] was “perturbed the ACh-induced contractions when applied in relatively high concentrations”, the “Analgesia (nonresponsiveness to tail pinch), No. affected/total treated” value ([12]; 10 mg/kg i.v.) was 2/5 and the “Vocalization, No. affected/total treated” value ([12]; 10 mg/kg i.v.) was 2/5. The “Mortality, No. dead/total treated” value ([12]; 10 mg/kg i.v., listed as (±)-III AF122A) was 0/5, the “Vocalization, No. affected/total treated” value ([12]; 25 mg/kg i.v.) was 3/6 and the “Analgesia (nonresponsiveness to tail pinch), No. affected/total treated” value [12, 13] was 4/5. The “Convulsive seizures, No. affected/total treated” value [12, 13] was 1/6, the “Exophthalmus, No. affected/total treated” value [12, 13] was 3/6 and the “Mortality, No. dead/total treated” value [12, 13] was 1/6. For the same compound, the “Respiratory distress, No. affected/total treated” value [12, 13] was 4/6, the “Tremors, No. affected/total treated” value [12, 13] was 3/6 and the “Mortality, time after drug administration” value (shortened to “Mortality, time”) ([12]; 25 mg/kg i.v., m = minutes) was 1 m. The “Convulsive seizures, No. affected/total treated” value ([12]; 50 mg/kg i.v.) was 2/2, the “Mortality, No. dead/total treated” value ([12]; 50 mg/kg i.v.) was 2/2 and the “Mortality, time” value ([12]; 50 mg/kg i.v.) was 5 s. The “Mortality, No. dead/total treated” value ([12]; 50 mg/kg p.o.) was 0/5, the “Mortality, No. dead/total treated” value ([12]; 100 mg/kg i.v.) was 2/2 and the “Mortality, time” value ([12]; 100 mg/kg i.v., immed = immediately) was “immed”. For the same compound, the “Mortality, No. dead/total treated” value [12, 14] was 0/5, the “Tremors, No. affected/total treated” value [12, 14] was 5/5 and the “Mortality, time” value ([12]; 200 mg/kg p.o.) was 30 s. The “Convulsive seizures, No. affected/total treated” value [12, 15] was 5/5, the “Mortality, No. dead/total treated” value [12, 15] was 5/5 and the “Tremors, No. affected/total treated” value [12, 15] was 5/5.
